Data reported in patent publication US9770026B2, “Substituted pyrimidine compound and uses thereof” (Shenyang Sinochem Agrochemicals R&D Co., Ltd., priority 2012, dated 2017).

Key:
wheat powdery mildew = assay: protectant activity in vivo against wheat powdery mildew; conditions: protectant activity; for pest or weed control at 6.25 µg/mL / pest or weed control at 25 µg/mL / pest or weed control at 100 µg/mL / pest or weed control at 400 µg/mL: Triticum aestivum, 168 h; for pest or weed control at 6.25 µg/mL: read-out: control effect against wheat powdery mildew (%), 6.25 mg/L; for pest or weed control at 25 µg/mL: read-out: control effect against wheat powdery mildew (%), 25 mg/L; for pest or weed control at 100 µg/mL: read-out: control effect against wheat powdery mildew (%), 100 mg/L; for pest or weed control at 400 µg/mL: read-out: control effect against wheat powdery mildew (%), 400 mg/L
[1] = tested on: Green peach aphids (Myzus Persicae Sulzer); assay: bioactivity test against green peach aphid, airbrush foliar spray; assay type: in vivo; conditions: contrastive test
Outline: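 Death rate was scored at 48 hrs, held at 25±1 C and 60±5% RH, following airbrush foliar spray (0.5 mL, 10 psi) onto cabbage leaf discs bearing about 15-30 aphids. Test solutions: compound dissolved in 1:1 acetone:methanol, brought to concentration with 0.1% tween 80 water.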

corn rust = assay: protectant activity in vivo against corn rust; conditions: protectant activity; for pest or weed control at 6.25 µg/mL: read-out: control effect against corn rust (%), 6.25 mg/L; for pest or weed control at 25 µg/mL: read-out: control effect against corn rust (%), 25 mg/L; for pest or weed control at 100 µg/mL: read-out: control effect against corn rust (%), 100 mg/L; for pest or weed control at 400 µg/mL: read-out: control effect against corn rust (%), 400 mg/L
cucumber downy mildew = assay: protectant activity in vivo against cucumber downy mildew; conditions: protectant activity; for pest or weed control at 25 µg/mL: read-out: control effect against cucumber downy mildew (%), 25 mg/L; for pest or weed control at 50 µg/mL: read-out: control effect against cucumber downy mildew (%), 50 mg/L; for pest or weed control at 100 µg/mL: read-out: control effect against cucumber downy mildew (%), 100 mg/L; for pest or weed control at 400 µg/mL: read-out: control effect against cucumber downy mildew (%), 400 mg/L
Diamond back moth = assay: insecticidal activity against diamond back moth, airbrush spray; assay type: in vivo; conditions: for pest or weed control at 600 µg/mL: 72 h
Protocol: (§1) Compounds were dissolved in mixed solvent (acetone:methanol=1:1), and diluted to required concentration with water containing 0.1% of tween 80.
(§2) Diamond back moth, armyworm, peach aphid and carmine spider mite were used as targets and the method of spraying by airbrush was used for determination of insecticidal biassays.
(§3) The method of spraying by airbrush: The cabbage leaves were made into plates of 2 cm diameter by use of punch. A test solution (0.5 ml) was sprayed by airbrush at the pressure of 0.7 kg/cm^2 to both sides of every plate. 10 Second instar larvae were put into the petri-dishes after the leaf disc air-dried and 3 replicates were set for each treatment. Then the insects were maintained in observation room (25° C., 60˜70% R.H.). Scores were conducted and mortalities were calculated after 72 hrs.

armyworm = assay: bioactivity test against armyworm, airbrush spray; assay type: in vivo; conditions: 600 mg/L; for pest or weed control at 600 µg/mL: 72 h, read-out: Insecticidal activity against armyworm (%)
Protocol: as §1, §2
as §3, with “corn” for “cabbage”, “(25 °C,” for “(25° C.,”, “h.” for “hrs.”

carmine spider mite = assay: bioactivity test against carmine spider mite, airbrush spray; assay type: in vivo; conditions: Tetranychus cinnabarinus, 72 h, contrastive test, read-out: Insecticidal activity against carmine spider mite (% )
Outline: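 Broadbean seedlings infested with adult mites were sprayed with compound (acetone/methanol stock diluted in 0.1% Tween 80 water) by airbrush at 0.7 kg/cm^2, 0.5 ml. Three replicates were run. Mortality was scored after 72 hrs.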

[2] = Myzus persicae, foliar, 48 h, 10 mg/L, read-out: Insecticidal activity against peach aphid (%)
[3] = Myzus persicae, foliar, 48 h, 100 mg/L, read-out: Insecticidal activity against peach aphid (%)
[4] = Myzus persicae, foliar, 48 h, 600 mg/L, read-out: Insecticidal activity against peach aphid (%)

## CCc1ncnc(NC(C)c2ccc(Oc3ccc(F)cc3)nc2)c1Cl (stereo not drawn) [CK9, reference compound]
Wheat powdery mildew; 6.25 mg/L
  control effect against wheat powdery mildew (%): 0%
Wheat powdery mildew; 25 mg/L
  control effect against wheat powdery mildew (%): 0%
Wheat powdery mildew; 100 mg/L
  control effect against wheat powdery mildew (%): 0%
Wheat powdery mildew; 400 mg/L
  control effect against wheat powdery mildew (%): 100%
[1]; 10 mg/L
  Insecticidal activity against peach aphid (%): 23%
[1]; 100 mg/L
  Insecticidal activity against peach aphid (%): 79%
[1]; 600 mg/L
  Insecticidal activity against peach aphid (%): 100%
Corn rust; 6.25 mg/L
  control effect against corn rust (%): 0%
Corn rust; 25 mg/L
  control effect against corn rust (%): 20%
Corn rust; 100 mg/L
  control effect against corn rust (%): 100%
Corn rust; 400 mg/L
  control effect against corn rust (%): 100%
Cucumber downy mildew; 25 mg/L
  control effect against cucumber downy mildew (%): 70%
Cucumber downy mildew; 50 mg/L
  control effect against cucumber downy mildew (%): 90%
Cucumber downy mildew; 100 mg/L
  control effect against cucumber downy mildew (%): 98%
Cucumber downy mildew; 400 mg/L
  control effect against cucumber downy mildew (%): 100%
Diamond back moth; 10 mg/L
  Insecticidal activity against diamond back moth (%): 25%
Diamond back moth; 100 mg/L
  Insecticidal activity against diamond back moth (%): 45%
Diamond back moth; 600 mg/L
  Insecticidal activity against diamond back moth (%): 100%
armyworm
  Insecticidal activity against armyworm (%): 40%

## CCc1ncnc(NC(C)c2ccc(Oc3ccc(C(C)(C)C)cc3)nc2)c1Cl (stereo not drawn) [CK10, reference compound]
Wheat powdery mildew; 400 mg/L
  control effect against wheat powdery mildew (%): 50%
[1]; 10 mg/L
  Insecticidal activity against peach aphid (%): 23%
[1]; 100 mg/L
  Insecticidal activity against peach aphid (%): 91%
[1]; 600 mg/L
  Insecticidal activity against peach aphid (%): 100%
Corn rust; 400 mg/L
  control effect against corn rust (%): 50%
Cucumber downy mildew; 25 mg/L
  control effect against cucumber downy mildew (%): 20%
Cucumber downy mildew; 50 mg/L
  control effect against cucumber downy mildew (%): 40%
Cucumber downy mildew; 100 mg/L
  control effect against cucumber downy mildew (%): 82%
Cucumber downy mildew; 400 mg/L
  control effect against cucumber downy mildew (%): 100%
Diamond back moth; 600 mg/L
  Insecticidal activity against diamond back moth (%): 33%
armyworm
  Insecticidal activity against armyworm (%): 0%

## Cc1ncnc(NC(C)c2ccc(Oc3ccc(C(F)(F)F)cn3)cc2)c1Cl (stereo not drawn) [CK28, reference compound]
[1]; [2]
  pest or weed control at 10 µg/mL: 43%
[1]; [3]
  pest or weed control at 100 µg/mL: 100%
[1]; [4]
  pest or weed control at 600 µg/mL: 100%
Corn rust; Zea mays, 168 h, read-out: control effect against corn rust (%), 0.4 mg/L
  pest or weed control at 0.4 µg/mL: 0%
Corn rust; Zea mays, 168 h, read-out: control effect against corn rust (%), 1.6 mg/L
  pest or weed control at 1.6 µg/mL: 0%
Corn rust; Zea mays, 168 h
  pest or weed control at 6.25 µg/mL: 95%
  pest or weed control at 25 µg/mL: 100%
  pest or weed control at 100 µg/mL: 100%
  pest or weed control at 400 µg/mL: 100%
Carmine spider mite; 10 mg/L
  pest or weed control at 10 µg/mL: 22%
Carmine spider mite; 100 mg/L
  pest or weed control at 100 µg/mL: 100%
Carmine spider mite; 600 mg/L
  pest or weed control at 600 µg/mL: 100%
Cucumber downy mildew; Cucumis sativus, 168 h
  pest or weed control at 25 µg/mL: 0%
  pest or weed control at 50 µg/mL: 20%
  pest or weed control at 100 µg/mL: 40%
  pest or weed control at 400 µg/mL: 100%
Diamond back moth; 600 mg/L
  pest or weed control at 600 µg/mL: 0%
armyworm
  pest or weed control at 600 µg/mL: 29%

## Cc1ncnc(NC(C)c2ccc(Oc3nc(Cl)c(Cl)cc3Cl)cc2)c1Cl (stereo not drawn) [CK29, reference compound]
Wheat powdery mildew
  pest or weed control at 6.25 µg/mL: 40%
  pest or weed control at 25 µg/mL: 50%
  pest or weed control at 100 µg/mL: 80%
  pest or weed control at 400 µg/mL: 100%
[1]; [4]
  pest or weed control at 600 µg/mL: 0%
Corn rust; Zea mays, 168 h
  pest or weed control at 6.25 µg/mL: 30%
  pest or weed control at 25 µg/mL: 85%
  pest or weed control at 100 µg/mL: 95%
  pest or weed control at 400 µg/mL: 100%
Cucumber downy mildew; Cucumis sativus, 168 h
  pest or weed control at 25 µg/mL: 25%
  pest or weed control at 50 µg/mL: 90%
  pest or weed control at 100 µg/mL: 98%
  pest or weed control at 400 µg/mL: 98%
Diamond back moth; 600 mg/L
  pest or weed control at 600 µg/mL: 0%
armyworm
  pest or weed control at 600 µg/mL: 14%

## CCc1ncnc(NCc2ccc(Oc3ccc(C(F)(F)F)cn3)cc2)c1Cl [CK42, reference compound]
Wheat powdery mildew
  pest or weed control at 6.25 µg/mL: 50%
  pest or weed control at 25 µg/mL: 60%
  pest or weed control at 100 µg/mL: 70%
  pest or weed control at 400 µg/mL: 100%
[1]; Myzus persicae, foliar, 48 h, 2.5 mg/L, read-out: Insecticidal activity against peach aphid (%)
  pest or weed control at 2.5 µg/mL: 0%
[1]; Myzus persicae, foliar, 48 h, 5 mg/L, read-out: Insecticidal activity against peach aphid (%)
  pest or weed control at 5 µg/mL: 17%
[1]; [2]
  pest or weed control at 10 µg/mL: 20%
[1]; [3]
  pest or weed control at 100 µg/mL: 67%
[1]; [4]
  pest or weed control at 600 µg/mL: 100%
Corn rust; Zea mays, 168 h
  pest or weed control at 400 µg/mL: 70%
Cucumber downy mildew; Cucumis sativus, 168 h, read-out: control effect against cucumber downy mildew (%), 3.125 mg/L
  pest or weed control at 3.125 µg/mL: 0%
Cucumber downy mildew; Cucumis sativus, 168 h, read-out: control effect against cucumber downy mildew (%), 6.25 mg/L
  pest or weed control at 6.25 µg/mL: 0%
Cucumber downy mildew; Cucumis sativus, 168 h, read-out: control effect against cucumber downy mildew (%), 12.5 mg/L
  pest or weed control at 12.5 µg/mL: 0%
Cucumber downy mildew; Cucumis sativus, 168 h
  pest or weed control at 25 µg/mL: 20%
  pest or weed control at 50 µg/mL: 100%
  pest or weed control at 100 µg/mL: 100%
  pest or weed control at 400 µg/mL: 100%
Diamond back moth; 600 mg/L
  pest or weed control at 600 µg/mL: 0%
armyworm
  pest or weed control at 600 µg/mL: 0%

## COc1cc(NCCc2ccc(Oc3ncc(C(F)(F)F)cc3Cl)cc2)ncn1 [CK71, reference compound]
Wheat powdery mildew
  pest or weed control at 400 µg/mL: 100%
Corn rust; Zea mays, 168 h
  pest or weed control at 400 µg/mL: 0%
Cucumber downy mildew; Cucumis sativus, 168 h
  pest or weed control at 400 µg/mL: 80%
Diamond back moth; 600 mg/L
  pest or weed control at 600 µg/mL: 0%
armyworm
  pest or weed control at 600 µg/mL: 86%
